In ChEMBL document CHEMBL5608259 (J Med Chem, 2024):
Active and inactive are the calls of the source. The rule behind the calls is not given here.

How the values were obtained:
[1] = molecular target: Protein arginine N-methyltransferase 3 (Homo sapiens, UniProt O60678); test: Inhibition of human PRMT3 using H4-21peptide as substrate at 10 uM incubated for 10 mins by fluorescence based analysis relative to control
[2] = molecular target: Protein arginine N-methyltransferase 8 (Homo sapiens, UniProt Q9NR22); test: Inhibition of human PRMT8 using Histone H4 as substrate and SAM as cofactor at 10 uM by radiometric HotSpot assay relative to control
[3] = molecular target: Protein arginine N-methyltransferase 1 (Homo sapiens, UniProt Q99873); test: Inhibition of human PRMT1 using H4-21peptide as substrate at 10 uM incubated for 10 mins by fluorescence based analysis relative to control
[4] = molecular target: T1, Histone-arginine methyltransferase CARM1 (Homo sapiens) (UniProt Q86X55); test: Inhibition of human PRMT4 using histone H3 as substrate and SAM as cofactor at 10 uM by radiometric HotSpot assay relative to control
T1 sequence (whole entry): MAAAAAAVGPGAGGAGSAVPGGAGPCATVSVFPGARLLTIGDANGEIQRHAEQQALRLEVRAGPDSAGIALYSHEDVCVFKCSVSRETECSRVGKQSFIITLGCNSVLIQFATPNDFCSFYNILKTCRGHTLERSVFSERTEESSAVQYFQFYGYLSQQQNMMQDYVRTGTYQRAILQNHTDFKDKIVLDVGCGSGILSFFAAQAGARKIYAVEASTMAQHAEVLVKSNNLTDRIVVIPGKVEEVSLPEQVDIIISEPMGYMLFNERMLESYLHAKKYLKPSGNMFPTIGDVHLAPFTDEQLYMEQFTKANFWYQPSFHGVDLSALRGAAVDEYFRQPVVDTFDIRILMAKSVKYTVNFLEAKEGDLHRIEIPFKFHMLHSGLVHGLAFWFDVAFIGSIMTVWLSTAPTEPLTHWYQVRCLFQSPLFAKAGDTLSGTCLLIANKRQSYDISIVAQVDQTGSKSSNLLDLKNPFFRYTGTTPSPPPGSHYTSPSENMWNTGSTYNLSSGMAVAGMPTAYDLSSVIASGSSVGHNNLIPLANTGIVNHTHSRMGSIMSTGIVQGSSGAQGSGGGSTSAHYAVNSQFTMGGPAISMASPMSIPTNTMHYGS

[5] = molecular target: Protein arginine N-methyltransferase 6 (Homo sapiens, UniProt Q96LA8); test: Inhibition of human PRMT6 using GST-GAR as substrate and SAM as cofactor at 10 uM by radiometric HotSpot assay relative to control
Sequence of Protein arginine N-methyltransferase 6 (Q96LA8 whole entry, looked up): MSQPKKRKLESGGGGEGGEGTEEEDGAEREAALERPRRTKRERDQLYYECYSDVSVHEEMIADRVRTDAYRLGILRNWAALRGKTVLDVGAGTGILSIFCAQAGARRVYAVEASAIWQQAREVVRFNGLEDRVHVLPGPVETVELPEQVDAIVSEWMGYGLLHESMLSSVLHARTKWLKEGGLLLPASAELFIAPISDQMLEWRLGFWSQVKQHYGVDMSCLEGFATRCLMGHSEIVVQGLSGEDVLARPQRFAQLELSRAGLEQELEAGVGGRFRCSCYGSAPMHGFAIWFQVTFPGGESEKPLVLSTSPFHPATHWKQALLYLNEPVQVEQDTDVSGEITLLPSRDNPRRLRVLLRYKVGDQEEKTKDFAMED

Sequence of Protein arginine N-methyltransferase 3 (O60678 2-531 limits assumed): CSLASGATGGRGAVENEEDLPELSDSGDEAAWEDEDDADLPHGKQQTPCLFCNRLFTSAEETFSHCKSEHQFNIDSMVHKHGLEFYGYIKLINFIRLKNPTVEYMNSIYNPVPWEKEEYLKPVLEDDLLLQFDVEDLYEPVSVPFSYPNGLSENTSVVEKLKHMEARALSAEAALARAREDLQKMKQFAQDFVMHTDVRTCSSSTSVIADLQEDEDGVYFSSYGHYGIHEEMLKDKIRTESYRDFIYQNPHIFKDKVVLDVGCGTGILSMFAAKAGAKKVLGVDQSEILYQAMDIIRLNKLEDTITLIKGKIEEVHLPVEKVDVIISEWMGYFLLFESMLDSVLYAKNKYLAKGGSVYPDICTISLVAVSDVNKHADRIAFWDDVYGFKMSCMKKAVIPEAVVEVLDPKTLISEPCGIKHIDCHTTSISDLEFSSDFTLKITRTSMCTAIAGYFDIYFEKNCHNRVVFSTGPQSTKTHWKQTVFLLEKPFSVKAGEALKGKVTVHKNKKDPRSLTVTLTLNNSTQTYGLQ
Sequence of Protein arginine N-methyltransferase 8 (Q9NR22 2-394 limits assumed): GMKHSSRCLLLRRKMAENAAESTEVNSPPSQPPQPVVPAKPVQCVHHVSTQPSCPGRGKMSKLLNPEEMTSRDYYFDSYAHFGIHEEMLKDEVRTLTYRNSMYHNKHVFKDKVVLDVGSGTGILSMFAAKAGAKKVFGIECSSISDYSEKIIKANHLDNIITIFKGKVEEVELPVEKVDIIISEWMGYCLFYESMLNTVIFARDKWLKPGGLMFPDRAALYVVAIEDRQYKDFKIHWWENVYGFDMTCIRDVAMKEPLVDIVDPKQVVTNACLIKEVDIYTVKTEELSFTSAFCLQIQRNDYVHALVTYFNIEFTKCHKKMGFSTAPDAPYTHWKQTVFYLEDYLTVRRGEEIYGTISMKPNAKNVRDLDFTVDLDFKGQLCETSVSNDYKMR
Sequence of Protein arginine N-methyltransferase 1 (Q99873 whole entry, looked up): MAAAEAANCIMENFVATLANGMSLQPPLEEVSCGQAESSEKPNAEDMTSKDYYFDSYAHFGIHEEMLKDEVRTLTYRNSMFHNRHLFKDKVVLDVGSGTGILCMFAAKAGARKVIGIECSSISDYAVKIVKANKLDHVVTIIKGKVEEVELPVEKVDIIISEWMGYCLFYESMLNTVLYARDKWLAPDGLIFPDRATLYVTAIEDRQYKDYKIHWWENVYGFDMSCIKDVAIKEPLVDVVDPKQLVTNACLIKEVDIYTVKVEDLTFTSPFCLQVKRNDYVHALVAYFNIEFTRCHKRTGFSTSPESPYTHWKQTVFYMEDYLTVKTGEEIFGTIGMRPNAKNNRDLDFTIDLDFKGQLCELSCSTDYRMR

| SMILES | inhibition [1] [%] | inhibition [2] [%] | inhibition [3] | inhibition [4] [%] | inhibition [5] [%] |
| --- | --- | --- | --- | --- | --- |
| Nc1ncnc2c1ncn2[C@@H]1O[C@H](CSCCCNC(=O)NCc2ccccc2)[C@@H](O)[C@H]1O | 3 | < 30 | < 50% | 27 | – |
| N=C(NCCCSC[C@H]1O[C@@H](n2cnc3c(N)ncnc32)[C@H](O)[C@@H]1O)Nc1cccc(-c2cncnc2)c1 | – | > 95 | > 50% | > 90 | > 90 |
| Nc1ncnc2c1ncn2[C@@H]1O[C@H](CSCCNC(=O)NC2CCCCC2)[C@@H](O)[C@H]1O | 3 | < 30 | < 50% | 27 | – |
| N=C(NCCCSC[C@H]1O[C@@H](n2cnc3c(N)ncnc32)[C@H](O)[C@@H]1O)Nc1cccc(-c2cccnc2)c1 | – | > 95 | > 50% | > 90 | > 90 |
| N=C(NCCCSC[C@H]1O[C@@H](n2cnc3c(N)ncnc32)[C@H](O)[C@@H]1O)Nc1cccc(-c2cccc(F)c2)c1 | – | > 95 | > 50% | > 90 | > 90 |
| COc1cc2nc(-c3cccc([N+](=O)[O-])c3)nc(NCCSC[C@H]3O[C@@H](n4cnc5c(N)ncnc54)[C@H](O)[C@@H]3O)c2cc1OC | < 30 | < 50 | inactive | – | – |
| N=C(NCCCSC[C@H]1O[C@@H](n2cnc3c(N)ncnc32)[C@H](O)[C@@H]1O)Nc1cccc(-c2cccc([N+](=O)[O-])c2)c1 | – | > 95 | > 50% | > 90 | > 90 |
| Nc1ncnc2c1ncn2[C@@H]1O[C@H](CSCCCNC(=O)NCCCc2ccccc2)[C@@H](O)[C@H]1O | 3 | < 30 | < 50% | 27 | – |
| Nc1ncnc2c1ncn2[C@@H]1O[C@H](CSCCNC(=O)NCc2ccc3cnccc3c2)[C@@H](O)[C@H]1O | 3 | < 30 | < 50% | 27 | – |
| COc1cc2nc(-c3ccccc3O)nc(NCCSC[C@H]3O[C@@H](n4cnc5c(N)ncnc54)[C@H](O)[C@@H]3O)c2cc1OC | < 30 | < 50 | inactive | – | – |
| COc1cc2nc(-c3ccc(C(F)(F)F)cc3)nc(NCCSC[C@H]3O[C@@H](n4cnc5c(N)ncnc54)[C@H](O)[C@@H]3O)c2cc1OC | < 30 | < 50 | inactive | – | – |
| COc1cc2nc(-c3cccc(O)c3)nc(NCCSC[C@H]3O[C@@H](n4cnc5c(N)ncnc54)[C@H](O)[C@@H]3O)c2cc1OC | < 30 | < 50 | inactive | – | – |
| Nc1ncnc2c1ncn2[C@@H]1O[C@H](CSCCNC(=O)Nc2ccccc2Br)[C@@H](O)[C@H]1O | > 50 | < 30 | < 50% | 27 | – |
| Nc1ncnc2c1ncn2[C@@H]1O[C@H](CSCCNC(=O)NCc2ccc(-c3cn[nH]c3)cc2)[C@@H](O)[C@H]1O | 3 | < 30 | < 50% | 27 | – |
| Nc1ncnc2c1ncn2[C@@H]1O[C@H](CSCCNC(=O)Nc2ccc(F)cc2)[C@@H](O)[C@H]1O | > 50 | < 30 | < 50% | 27 | – |
| Nc1ncnc2c1ncn2[C@@H]1O[C@H](CSCCNC(=O)NCCCc2ccccc2)[C@@H](O)[C@H]1O | 3 | < 30 | < 50% | 27 | – |
| Nc1ncnc2c1ncn2[C@@H]1O[C@H](CSCCNC(=O)Nc2ccccc2)[C@@H](O)[C@H]1O | > 50 | < 30 | < 50% | 27 | – |
| COc1cc2nc(-c3cccc(F)c3)nc(NCCSC[C@H]3O[C@@H](n4cnc5c(N)ncnc54)[C@H](O)[C@@H]3O)c2cc1OC | < 30 | < 50 | inactive | – | – |
| Nc1ncnc2c1ncn2[C@@H]1O[C@H](CSCCNC(=O)NCc2ccccc2Br)[C@@H](O)[C@H]1O | 3 | < 30 | < 50% | > 90 | – |
| CCNC(=O)NCCSC[C@H]1O[C@@H](n2cnc3c(N)ncnc32)[C@H](O)[C@@H]1O | 3 | < 30 | < 50% | 27 | – |
| Nc1ncnc2c1ncn2[C@@H]1O[C@H](CSCCNC(=O)Nc2cccc3ccccc23)[C@@H](O)[C@H]1O | 3 | < 30 | < 50% | 27 | – |

Continued, values first:

| inhibition [1] [%] | inhibition [2] [%] | inhibition [3] | inhibition [4] [%] | inhibition [5] [%] | SMILES |
| --- | --- | --- | --- | --- | --- |
| 3 | < 30 | < 50% | 27 | – | Nc1ncnc2c1ncn2[C@@H]1O[C@H](CSCCNC(=O)NCCc2ccccc2)[C@@H](O)[C@H]1O |
| > 50 | < 30 | < 50% | > 90 | – | Nc1ncnc2c1ncn2[C@@H]1O[C@H](CSCCNC(=O)NCc2ccc(F)cc2)[C@@H](O)[C@H]1O |
| – | > 95 | > 50% | > 90 | > 90 | N=C(NCCSC[C@H]1O[C@@H](n2cnc3c(N)ncnc32)[C@H](O)[C@@H]1O)Nc1cccc(-c2cccc(F)c2)c1 |
| – | > 95 | > 50% | > 90 | > 90 | N=C(NCCCSC[C@H]1O[C@@H](n2cnc3c(N)ncnc32)[C@H](O)[C@@H]1O)Nc1cccc(-c2ccc(O)cc2)c1 |
| – | > 95 | > 50% | > 90 | > 90 | N=C(NCCCSC[C@H]1O[C@@H](n2cnc3c(N)ncnc32)[C@H](O)[C@@H]1O)Nc1cccc(-c2ccc(F)nc2)c1 |
| < 30 | < 50 | inactive | – | – | COc1cc2nc(-c3ccc(F)c(O)c3)nc(NCCSC[C@H]3O[C@@H](n4cnc5c(N)ncnc54)[C@H](O)[C@@H]3O)c2cc1OC |
| 3 | < 30 | < 50% | 27 | – | Nc1ncnc2c1ncn2[C@@H]1O[C@H](CSCCCNC(=O)NCc2ccc(F)cc2)[C@@H](O)[C@H]1O |
| < 30 | < 50 | inactive | – | – | COc1cc2nc(-c3ccc(N)cc3)nc(NCCSC[C@H]3O[C@@H](n4cnc5c(N)ncnc54)[C@H](O)[C@@H]3O)c2cc1OC |
| 3 | < 30 | < 50% | 27 | – | Nc1ncnc2c1ncn2[C@@H]1O[C@H](CSCCNC(=O)NCc2ccc(-c3ccccc3O)cc2)[C@@H](O)[C@H]1O |
| 3 | < 30 | < 50% | 27 | – | Nc1ncnc2c1ncn2[C@@H]1O[C@H](CSCCNC(=O)NCc2ccc(-c3cc[nH]n3)cc2)[C@@H](O)[C@H]1O |
| 3 | < 30 | < 50% | 27 | – | Nc1ncnc2c1ncn2[C@@H]1O[C@H](CSCCCNC(=O)NCCc2ccccc2)[C@@H](O)[C@H]1O |
| < 30 | < 50 | inactive | – | – | COc1cc2nc(-c3ccoc3)nc(NCCSC[C@H]3O[C@@H](n4cnc5c(N)ncnc54)[C@H](O)[C@@H]3O)c2cc1OC |
| 3 | < 30 | < 50% | 27 | – | Nc1ncnc2c1ncn2[C@@H]1O[C@H](CSCCNC(=O)Nc2ccc(Cl)cc2)[C@@H](O)[C@H]1O |
